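Where inhibition never reached the appropriate level, the endpoint shown equals the highest concentration tested. Otherwise, values were interpolated linearly from a five-concentration, 48-hour dose response in 96-well plates. The concentration for 50% growth inhibition is given as GI50.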 The source made the active and inactive calls. Rule as the data show it: active = GI50 up to about 1.1 µM and inactive = higher.
Experiments:
Assay in all cases: growth of human tumour cells (NCI), 48 h
HCT-15 = test system: HCT-15
U-251 = test system: U-251
A498 = test system: A498
UACC-62 = test system: UACC-62
NCI-H23 = test system: NCI-H23
DLD-1 = test system: DLD-1
IGROV-1 = test system: IGROV-1
NCI-H460 = test system: NCI-H460
HOP-62 = test system: HOP-62
COLO 205 = test system: COLO 205
HCC 2998 = test system: HCC 2998
UO-31 = test system: UO-31
SF-295 = test system: SF-295
RXF 393 = test system: RXF 393
MOLT-4 = test system: MOLT-4
HL-60 = test system: HL-60
XF498 = test system: XF498
SK-MEL-2 = test system: SK-MEL-2
RPMI-8226 = test system: RPMI-8226
DMS-114 = test system: DMS-114
OVCAR-8 = test system: OVCAR-8
OVCAR-4 = test system: OVCAR-4
DMS-273 = test system: DMS-273
KM-20L2 = test system: KM-20L2
SW-620 = test system: SW-620
SF-539 = test system: SF-539
HOP-92 = test system: HOP-92
K562 = test system: K562
SK-OV-3 = test system: SK-OV-3
M14 = test system: M14
SNB-19 = test system: SNB-19
LOX IMVI = test system: LOX IMVI
HCT-116 = test system: HCT-116
TK-10 = test system: TK-10
HOP-18 = test system: HOP-18
KM12 = test system: KM12
A549 = test system: A549
SNB-75 = test system: SNB-75
SK-MEL-5 = test system: SK-MEL-5
SNB-78 = test system: SNB-78
UACC-257 = test system: UACC-257
CCRF-CEM = test system: CCRF-CEM
M19-MEL = test system: M19-MEL
EKVX = test system: EKVX
RXF 631 = test system: RXF 631
HT-29 = test system: HT-29
NCI-H226 = test system: NCI-H226
SN12C = test system: SN12C
ACHN = test system: ACHN
786-0 = test system: 786-0
OVCAR-3 = test system: OVCAR-3
SK-MEL-28 = test system: SK-MEL-28
SF-268 = test system: SF-268
NCI-H522 = test system: NCI-H522
Malme-3M = test system: Malme-3M

Measured: GI50

CC1(Sc2ccccc2)CN(Cc2ccccc2)C1=O (stereo not drawn)
inactive: U-251 > 100 µM | A498 > 100 µM | UACC-62 > 100 µM | NCI-H23 > 100 µM | DLD-1 > 100 µM | IGROV-1 > 100 µM | NCI-H460 > 100 µM | HOP-62 > 100 µM | COLO 205 > 100 µM | HCC 2998 > 100 µM | UO-31 22.8 µM | SF-295 > 100 µM | RXF 393 > 100 µM | MOLT-4 49.7 µM | HL-60 60.4 µM | XF498 39.5 µM | SK-MEL-2 > 100 µM | RPMI-8226 57.3 µM | DMS-114 45.6 µM | OVCAR-8 > 100 µM | OVCAR-4 88.5 µM | DMS-273 > 100 µM | KM-20L2 > 100 µM | SW-620 > 100 µM | SF-539 > 100 µM | HOP-92 20.5 µM | K562 77.8 µM | SK-OV-3 > 100 µM | M14 > 100 µM | SNB-19 > 100 µM | LOX IMVI > 100 µM | HCT-116 60 µM | TK-10 > 100 µM | HOP-18 > 100 µM | KM12 > 100 µM | A549 > 100 µM | SNB-75 39.6 µM | SK-MEL-5 > 100 µM | SNB-78 > 100 µM | UACC-257 54.5 µM | CCRF-CEM > 100 µM | M19-MEL > 100 µM | EKVX > 100 µM | RXF 631 > 100 µM | HT-29 > 100 µM | NCI-H226 > 100 µM | SN12C > 100 µM | ACHN > 100 µM | 786-0 > 100 µM | OVCAR-3 > 100 µM | SK-MEL-28 > 100 µM | SF-268 > 100 µM | NCI-H522 60.3 µM
75.2 µM: HCT-15

COc1ccc(C=O)c(N(C)C(=O)C(C)(C)C)c1
inactive: U-251 > 100 µM | A498 > 100 µM | Malme-3M > 100 µM | UACC-62 > 100 µM | NCI-H23 > 100 µM | IGROV-1 > 100 µM | NCI-H460 > 100 µM | HOP-62 > 100 µM | COLO 205 > 100 µM | HCC 2998 > 100 µM | UO-31 > 100 µM | SF-295 > 100 µM | RXF 393 > 100 µM | MOLT-4 > 100 µM | HL-60 > 100 µM | XF498 17.1 µM | SK-MEL-2 > 100 µM | RPMI-8226 > 100 µM | DMS-114 > 100 µM | OVCAR-8 > 100 µM | OVCAR-4 > 100 µM | DMS-273 > 100 µM | KM-20L2 > 100 µM | SW-620 > 100 µM | SF-539 > 100 µM | HOP-92 > 100 µM | K562 > 100 µM | SK-OV-3 > 100 µM | M14 > 100 µM | SNB-19 > 100 µM | LOX IMVI > 100 µM | HCT-116 > 100 µM | TK-10 > 100 µM | HOP-18 > 100 µM | KM12 > 100 µM | A549 > 100 µM | SNB-75 > 100 µM | SK-MEL-5 > 100 µM | SNB-78 > 100 µM | UACC-257 > 100 µM | CCRF-CEM > 100 µM | M19-MEL > 100 µM | EKVX > 100 µM | RXF 631 > 100 µM | HT-29 > 100 µM | NCI-H226 > 100 µM | SN12C > 100 µM | ACHN > 100 µM | 786-0 > 100 µM | OVCAR-3 > 100 µM | SK-MEL-28 > 100 µM | SF-268 > 100 µM | NCI-H522 > 100 µM
> 100 µM: HCT-15

Source: ChEMBL document CHEMBL1201862, “PubChem BioAssay data set” (2004)
